Assay results from patent publication US20160130226A1, “SPIRO-SUBSTITUTED OXINDOLE DERIVATIVES HAVING AMPK ACTIVITY” (BOEHRINGER INGELHEIM INTERNATIONAL GMBH, priority 2013, published 2016).

target: T1, AMPK beta 1 (Homo sapiens, UniProt Q13131+Q9Y478); test: in-cell-ELISA for phospho-ACC: activation of AMPK, beta 1 (HepG2 cells / C2C12 myotubes); type: cell-based; conditions: 1 μM, 2 h, percentage activation over vehicle control
T1 construct: in-cell-ELISA for phospho-ACC (Acetyl-CoA carboxylase 1) in HepG2 cells (liver); endogenous in cells; host or cells: HepG2 (assignment to the beta 1 column inferred)
T1 sequence (Q9Y478 2-270 limits assumed): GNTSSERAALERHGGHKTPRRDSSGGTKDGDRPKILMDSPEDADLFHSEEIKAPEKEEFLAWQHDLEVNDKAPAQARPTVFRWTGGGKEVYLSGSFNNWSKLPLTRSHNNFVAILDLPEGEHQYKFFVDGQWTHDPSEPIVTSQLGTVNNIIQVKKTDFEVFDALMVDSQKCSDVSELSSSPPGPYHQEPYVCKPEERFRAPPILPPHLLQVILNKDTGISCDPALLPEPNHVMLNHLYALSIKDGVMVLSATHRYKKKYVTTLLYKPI
T1 sequence (Q13131 whole entry): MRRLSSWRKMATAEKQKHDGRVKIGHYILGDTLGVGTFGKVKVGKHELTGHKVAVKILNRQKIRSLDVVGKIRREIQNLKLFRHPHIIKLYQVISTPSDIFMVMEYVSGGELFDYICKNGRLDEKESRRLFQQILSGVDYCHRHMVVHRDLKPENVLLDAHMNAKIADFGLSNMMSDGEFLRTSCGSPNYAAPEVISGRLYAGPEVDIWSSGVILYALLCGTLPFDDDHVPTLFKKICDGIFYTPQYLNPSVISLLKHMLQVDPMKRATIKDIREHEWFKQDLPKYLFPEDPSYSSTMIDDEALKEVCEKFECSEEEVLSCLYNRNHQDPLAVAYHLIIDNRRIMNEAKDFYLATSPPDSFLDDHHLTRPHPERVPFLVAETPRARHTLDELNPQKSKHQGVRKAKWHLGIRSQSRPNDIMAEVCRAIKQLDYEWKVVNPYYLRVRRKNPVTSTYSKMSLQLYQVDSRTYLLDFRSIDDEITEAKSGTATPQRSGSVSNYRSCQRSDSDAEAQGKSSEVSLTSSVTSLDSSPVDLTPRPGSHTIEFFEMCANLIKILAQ
T1 sequence (P54619 whole entry partner): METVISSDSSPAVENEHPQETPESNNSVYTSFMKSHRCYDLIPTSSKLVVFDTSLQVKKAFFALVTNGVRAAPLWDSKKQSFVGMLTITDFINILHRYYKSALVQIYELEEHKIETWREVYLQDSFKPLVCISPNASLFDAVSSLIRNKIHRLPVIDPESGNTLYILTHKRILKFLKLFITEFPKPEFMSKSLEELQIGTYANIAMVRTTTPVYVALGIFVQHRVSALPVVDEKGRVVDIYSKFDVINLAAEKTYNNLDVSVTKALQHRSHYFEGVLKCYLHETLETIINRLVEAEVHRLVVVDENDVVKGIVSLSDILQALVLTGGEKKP
Method: Activation of AMPK by various compounds were measured using in-cell-ELISA for phospho-ACC (Acetyl-CoA carboxylase 1) in HepG2 cells (liver) and fully differentiated myotubes (C2C12 cells) grown in 96 well plate. Cells were treated with 1 μM, 3 μM or 10 μM of the molecule (Example) for 2 h in serum free DMEM media. After methanol fixation, cells were blocked with BSA followed by addition of anti-phospho ACC antibody (Cell Signaling) and HRP conjugated secondary antibody. Absorbance values taken at 450 nm were normalized with total DNA (Hoechest stain). Results were expressed as percentage activation over vehicle control.
Percentage activation at compound (Example) concentration of 1, 3 or 10 μM for compounds according to the invention are shown in the following table. The number of the compound corresponds to the number of the Example (Ex) in the experimental section.

Percentage activation of beta 1 at given concentration [% at 1 μM] | SMILES
131 | CC(C)(C(=O)O)c1ccc(C2CC23C(=O)Nc2cc(F)c(-c4ccc(-c5ccc(-n6cncn6)cc5)cc4)cc23)cc1 (centres unmarked) [Example 163]
165 | Cc1ccc(C2CC23C(=O)Nc2cc(Cl)c(-c4ccc(-c5ccc(-n6cncn6)cc5)cc4)cc23)cc1C(=O)O (centres unmarked) [Example 117]
32 | Cc1ccc(C2CC23C(=O)Nc2cc(F)c(-c4ccc(-c5ccc(-n6cncn6)cc5)cc4)cc23)cc1C(=O)O (centres unmarked) [Example 147]
99 | Cc1ccc(C2CC23C(=O)Nc2cc(Cl)c(-c4ccc(-c5ccc(-n6cncn6)cc5)cc4)cc23)cc1C(=O)O (centres unmarked) [Example 119]

same assay, conditions: 3 μM, 2 h, percentage activation over vehicle control

Percentage activation of beta 1 at given concentration [% at 3 μM] | SMILES
118 | O=C(O)Cc1cccc(C2CC23C(=O)Nc2cc(Cl)c(-c4ccc(-c5ccncc5)cc4)cc23)c1 (centres unmarked) [Example 61]

same assay, conditions: 10 μM, 2 h, percentage activation over vehicle control

Percentage activation of beta 1 at given concentration [% at 10 μM] | SMILES
23 | O=C(O)Cc1cccc(C2CC23C(=O)Nc2cc(Cl)c(-c4ccc(-c5ccccc5O)cn4)cc23)c1 (centres unmarked) [Example 16]
80 | Cc1ccc(C2CC23C(=O)Nc2cc(Cl)c(-c4ccc(C5(CO)CC5)cc4)cc23)cc1C(=O)O (centres unmarked) [Example 45]
11 | Cc1ccc(C2CC23C(=O)Nc2cc(Cl)c(-c4ccc(C5(CO)CC5)cc4)cc23)cc1C(=O)O (centres unmarked) [Example 44]
168 | O=C(O)Cc1cccc(C2CC23C(=O)Nc2cc(Cl)c(-c4ccc(-c5ccccc5O)cn4)cc23)c1 (centres unmarked) [Example 18]

same assay, conditions: 2 h, 1 μM, percentage activation over vehicle control, read-out: Percentage activation of beta 1 at given concentration

activation at 1 µM [%] | SMILES
44 | O=C(O)Cc1cccc(C2CC23C(=O)Nc2cc(F)c(-c4ccc(-c5ccc(-n6cccn6)cc5)cc4)cc23)c1 (centres unmarked) [Example 171]
28 | Cc1ccc(C2CC23C(=O)Nc2c(F)cc(-c4ccc(-c5ccc(-n6cncn6)cc5)cc4)cc23)cc1C(=O)O (centres unmarked) [Example 155]
87 | O=C(O)Cc1cccc(C2CC23C(=O)Nc2cc(F)c(-c4ccc(-c5ccc(-n6ccnn6)cc5)cc4)cc23)c1 (centres unmarked) [Example 174]
51 | COc1ccc(C2CC23C(=O)Nc2cc(F)c(-c4ccc(-c5ccc(-n6ccnn6)cc5)cc4)cc23)cc1CC(=O)O (centres unmarked) [Example 177]
42 | Cc1ccc(C2CC23C(=O)Nc2cc(Cl)c(-c4ccc(-c5ccncc5)cc4)cc23)cc1CC(=O)O (centres unmarked) [Example 63]

same assay, conditions: 2 h, 3 μM, percentage activation over vehicle control, read-out: Percentage activation of beta 1 at given concentration

activation at 3 µM [%] | SMILES
56 | Cc1ccc(C2CC23C(=O)N(C(C)C)c2cc(Cl)c(-c4ccc(-c5ccncc5)cc4)cc23)cc1C(=O)O (centres unmarked) [Example 104]
73 | O=C(O)Cc1cccc(C2CC23C(=O)Nc2cc(Cl)c(-c4ccc(-c5ccccc5O)cc4)cc23)c1 (centres unmarked) [Example 26]
64 | COc1ccc(C2CC23C(=O)Nc2cc(F)c(-c4ccc(-c5ccccc5O)cc4)cc23)cc1C(=O)O (centres unmarked) [Example 11]
100 | Cc1ccc(C2CC23C(=O)Nc2cc(Cl)c(-c4ccc(-c5ccc(-n6cncn6)cc5)cc4)cc23)cc1C(=O)O (centres unmarked) [Example 116]
43 | Cc1ccc(C2CC23C(=O)Nc2cc(Cl)c(-c4ccc(-c5ccccc5O)cn4)cc23)cc1CC(=O)O (centres unmarked) [Example 19]
60 | O=C(O)c1cccc(C2CC23C(=O)Nc2cc(F)c(-c4ccc(-c5ccccc5O)cc4)cc23)c1 (centres unmarked) [Example 2]
134 | Cc1ccc(C2CC23C(=O)N(C)c2cc(Cl)c(-c4ccc(-c5ccncc5)cc4)cc23)cc1C(=O)O (centres unmarked) [Example 100]
15 | O=C(O)Cc1cccc(C2CC23C(=O)Nc2cc(Cl)c(-c4ccc(-c5ccc(-n6cncn6)cc5)cc4)cc23)c1 (centres unmarked) [Example 129]
34 | CC(C)c1ccc(C2CC23C(=O)Nc2cc(Cl)c(-c4ccc(N5CCC[C@H]5CO)cc4)cc23)cc1C(=O)O (some centres unmarked) [Example 51]
63 | CC(C)c1ccc(C2CC23C(=O)Nc2cc(Cl)c(-c4ccc(-c5ncccc5O)cc4)cc23)cc1C(=O)O (centres unmarked) [Example 23]
32 | Cc1ccc(C2CC23C(=O)Nc2cc(Cl)c(-c4ccc(-c5ccc(-n6cncn6)cc5)cc4)cc23)cc1C(C)(C)O (centres unmarked) [Example 186]
80 | Cc1ccc(C2CC23C(=O)Nc2cc(Cl)c(-c4ccc(-c5ccncc5)c(F)c4)cc23)cc1C(=O)O (centres unmarked) [Example 67]
71 | O=C(O)Cc1ccc(C2CC23C(=O)Nc2cc(Cl)c(-c4ccc(-c5ccc(-n6cncn6)cc5)cc4)cc23)cc1 (centres unmarked) [Example 127]
19 | Cc1ccc(C2CC23C(=O)Nc2cc(Cl)c(-c4ccc(-c5ccc(-c6nnn[nH]6)cc5)cc4)cc23)cc1C(=O)O (centres unmarked) [Example 136]
30 | CN1C(=O)C2(CC2c2ccc(C(C)(C)C(=O)O)cc2)c2cc(-c3ccc(-c4ccncc4)cc3)c(Cl)cc21 (centres unmarked) [Example 112]
47 | Cc1ccc(C2CC23C(=O)Nc2cc(Cl)c(-c4ccc(-c5ccccc5C(C)(C)O)cc4)cc23)cc1C(=O)O (centres unmarked) [Example 53]
47 | Cc1ccc(C2CC23C(=O)Nc2cc(Cl)c(-c4ccc(Cc5ccccc5O)cc4)cc23)cc1C(=O)O (centres unmarked) [Example 34]
23 | O=C1Nc2cc(F)c(-c3ccc(-c4ccccc4O)cc3)cc2C12CC2c1cccc(-c2nnn[nH]2)c1 (centres unmarked) [Example 179]
48 | CC(C)(C(=O)O)c1ccc(C2CC23C(=O)Nc2cc(Cl)c(-c4ccc(-c5ccc(-n6cncn6)cc5)cc4)cc23)cc1 (centres unmarked) [Example 137]
59 | COc1ccc(C2CC23C(=O)Nc2cc(Cl)c(-c4ccc(-c5ccncc5)cc4)cc23)cc1CC(=O)O (centres unmarked) [Example 70]
104 | Cc1ccc(C2CC23C(=O)Nc2cc(F)c(-c4ccc(-c5ccc(-n6cccn6)cc5)cc4)cc23)cc1C(=O)O (centres unmarked) [Example 141]
58 | CCN1C(=O)C2(CC2c2ccc(OC)c(CC(=O)O)c2)c2cc(-c3ccc(-c4ccncc4)cc3)c(Cl)cc21 (centres unmarked) [Example 110]
83 | Cc1ccc(C2CC23C(=O)N(CC2CC2)c2cc(Cl)c(-c4ccc(-c5ccncc5)cc4)cc23)cc1C(=O)O (centres unmarked) [Example 109]
36 | Cc1ccc(C2CC23C(=O)Nc2cc(Cl)c(-c4ccc(-c5ccc(-n6cncn6)cc5)cc4)cc23)cc1CO (centres unmarked) [Example 184]
48 | Cn1cc(C2CC23C(=O)Nc2cc(F)c(-c4ccc(-c5ccccc5O)cc4)cc23)cc1C(=O)O (centres unmarked) [Example 14]
81 | Cc1ccc(C2CC23C(=O)N(CCO)c2cc(Cl)c(-c4ccc(-c5ccncc5)cc4)cc23)cc1C(=O)O (centres unmarked) [Example 105]

same assay, conditions: 2 h, 10 μM, percentage activation over vehicle control, read-out: Percentage activation of beta 1 at given concentration

activation at 10 µM [%] | SMILES
10 | Cc1ccc(C2CC23C(=O)Nc2cc(Cl)c(S(=O)(=O)NC4CCC4)cc23)cc1C(=O)O (centres unmarked) [Example 91]
66 | Cc1ccc(C2CC23C(=O)Nc2cc(Cl)c(-c4ccc(-c5ccccn5)cc4)cc23)cc1C(=O)O (centres unmarked) [Example 78]
75 | COc1ccc(C2CC23C(=O)Nc2cc(F)c(-c4ccc(-c5ccncc5)cc4)cc23)cc1C(=O)O (centres unmarked) [Example 84]
132 | CN(C)c1cc(-c2ccc(-c3cc4c(cc3Cl)NC(=O)C43CC3c3cccc(CC(=O)O)c3)cc2)ccn1 (centres unmarked) [Example 88]
271 | CC(C)c1ccc(C2CC23C(=O)Nc2cc(Cl)c(-c4ccc(-c5ccncc5O)cc4)cc23)cc1C(=O)O (centres unmarked) [Example 22]
85 | CC(C)c1ccc(C2CC23C(=O)Nc2cc(Cl)c(-c4ccc(-c5ccccc5O)cn4)cc23)cc1C(=O)O (centres unmarked) [Example 24]
102 | O=C(O)c1cccc(C2CC23C(=O)Nc2cc(F)c(-c4ccc(-c5ccccc5O)cc4)cc23)c1 (centres unmarked) [Example 1]
17 | COc1ccc(C2CC23C(=O)Nc2cc(Cl)c(-c4ccc(-c5ccccc5)cn4)cc23)cc1C(=O)O (centres unmarked) [Example 77]
51 | CCN1C(=O)C2(CC2c2ccc(C)c(CC(=O)O)c2)c2cc(-c3ccc(-c4ccncc4)cc3)c(Cl)cc21 (centres unmarked) [Example 113]
112 | Cc1ccc(C2CC23C(=O)Nc2cc(Cl)c(C#Cc4ccncc4)cc23)cc1C(=O)O (centres unmarked) [Example 79]
72 | Cc1ccc(C2CC23C(=O)Nc2cc(Cl)c(-c4ccc5c(ccn5CCO)c4)cc23)cc1C(=O)O (centres unmarked) [Example 47]
83 | Cc1ccc(C2CC23C(=O)Nc2cc(F)c(-c4ccc(-c5ccccc5O)cc4)cc23)cc1C(=O)O (centres unmarked) [Example 4]
23 | Cc1ccc(C2CC23C(=O)Nc2cc(F)c(-c4ccc(-c5ccccc5O)cn4)cc23)cc1C(=O)O (centres unmarked) [Example 9]
51 | Cc1ccc(C2CC23C(=O)Nc2cc(Cl)c(-c4ccc5cc[nH]c5c4)cc23)cc1C(=O)O (centres unmarked) [Example 93]
86 | Cc1ccc(C2CC23C(=O)Nc2cc(Cl)c(-c4ccc(-c5cccnc5)cc4)cc23)cc1C(=O)O (centres unmarked) [Example 62]
42 | Cn1c(C(=O)O)ccc1C1CC12C(=O)Nc1cc(Cl)c(-c3ccc(-c4ccccc4O)cc3)cc12 (centres unmarked) [Example 42]
25 | Cc1ccc(C2CC23C(=O)Nc2cc(Cl)c(S(=O)(=O)NC4CC4)cc23)cc1C(=O)O (centres unmarked) [Example 90]
176 | Cc1ccc(C2CC23C(=O)N(C)c2cc(F)c(-c4ccc(-c5ccccc5O)cc4)cc23)cc1C(=O)O (centres unmarked) [Example 15]
166 | Cc1ccc(C2CC23C(=O)Nc2cc(F)c(-c4ccc(-c5ccccc5O)cc4)cc23)cc1CC(=O)O (centres unmarked) [Example 3]
